In brackets after ≈: the same amount, converted by molar mass. Read-outs that look alike come from different tables or passages of the source.
Key:
[1] = test system: Axin2 and Myc; test: Gene expression in cells (FIG. 1); format: cell-based
From the text: FIG. 1. Provided agents can modulate gene expression in cells.

[2] = test system: PLOD2 and LCOR; test: Expression of beta-catenin-independent genes (FIG. 2); format: cell-based
[3] = test system: DLD1; test: Reporter assay (e.g., DLD1 reporter assay) (FIG. 3); format: cell-based; conditions: compared to a control peptide I-796
From the text: FIG. 3. Provided technologies can effectively modulate expression.
Various technologies can be utilized for characterizing and/or assessing provided technologies (e.g., agents (e.g., various peptides), compositions, methods, etc.) in accordance with the present disclosure. As described herein, in some embodiments, a useful technology is or comprises fluorescence polarization. In some embodiments, a useful technology assesses Log P or Log D. In some embodiments, a useful technology is or comprises a CHI Log D assay. In some embodiments, a useful technology assesses solubility. In some embodiments, a useful technology is or comprises NanoBRET. In some embodiments, a useful technology is or comprises a reporter assay (e.g., DLD1 reporter assay). In some embodiments, a useful technology is or comprises alphascreen. Certain useful protocols are described in the Examples. Those skilled in the art appreciate that suitable adjustments may be made to such protocols, e.g., according to specific conditions, agents, purposes, etc.

[4] = molecular target: T1, full-length beta-Catenin (Uniprot ID P35222) (Homo sapiens, UniProt P35222); test: Fluorescence polarization IC50 (beta-catenin / 5FAM-TCF4 10-53 competition); format: binding
T1 construct: 10 nM full-length beta-Catenin (Uniprot ID P35222)
T1 sequence (P35222 1-781): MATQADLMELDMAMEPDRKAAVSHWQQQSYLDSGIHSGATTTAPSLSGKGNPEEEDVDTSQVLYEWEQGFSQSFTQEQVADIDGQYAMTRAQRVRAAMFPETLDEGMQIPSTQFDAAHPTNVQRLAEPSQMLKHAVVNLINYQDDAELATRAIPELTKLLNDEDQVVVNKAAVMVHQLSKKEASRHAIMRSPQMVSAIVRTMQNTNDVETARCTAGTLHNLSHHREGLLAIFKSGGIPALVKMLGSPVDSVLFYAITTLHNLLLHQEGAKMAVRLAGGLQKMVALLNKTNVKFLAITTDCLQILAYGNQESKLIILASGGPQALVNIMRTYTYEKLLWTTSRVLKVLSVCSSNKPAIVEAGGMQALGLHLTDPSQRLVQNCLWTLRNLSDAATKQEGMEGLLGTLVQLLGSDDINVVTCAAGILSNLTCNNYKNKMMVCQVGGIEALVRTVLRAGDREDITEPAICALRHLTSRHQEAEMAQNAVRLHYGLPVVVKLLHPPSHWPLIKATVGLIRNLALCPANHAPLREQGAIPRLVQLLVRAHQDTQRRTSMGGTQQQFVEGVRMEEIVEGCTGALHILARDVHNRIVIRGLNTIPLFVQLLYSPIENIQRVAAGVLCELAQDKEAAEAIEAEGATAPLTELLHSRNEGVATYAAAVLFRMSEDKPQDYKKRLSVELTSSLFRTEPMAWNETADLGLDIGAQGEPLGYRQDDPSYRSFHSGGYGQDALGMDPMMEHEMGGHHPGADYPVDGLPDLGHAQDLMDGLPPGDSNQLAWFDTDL

[5] = CHI Log D procedure; format: physicochemical; conditions: pH 7.4
[6] = molecular target: T2, beta-catenin/TCF4 engagement (Homo sapiens, UniProt P35222); test: Nano-BRET target engagement assay (B-cat-Halo & TCF4-Luc in HEK293 cells); format: cell-based
T2 construct: expressed in transfected cells; host or cells: HEK293
T2 sequence (P35222 1-781): T1 sequence (P35222 1-781)

[7] = test system: TCF/LEF luciferase Reporter in DLD1 cells; test: TCF reporter assay (DLD1 TCF/LEF luciferase reporter, Bright-Glo); format: cell-based
Procedure, shortened: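 Readouts: Bright-Glo luciferase for reporter signal and CellTiter-Glo for cell viability, with absolute IC50 derived. The reporter clone came from lentiviral TCF/LEF-luciferase transduction of DLD1 cells, seeded 5000 cells/well in RPMI with 4% FBS and exposed overnight to serially diluted compounds.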

[8] = Solubility in PBS; format: physicochemical
Procedure, shortened: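 Read-out is the HPLC peak area of the supernatant from ultracentrifuged PBS solution, scaled against a 50 μM peptide DMSO injection; value reported as [(PBS area)/(DMSO area)]*50 uM.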

[9] = fluorescence polarization, beta-catenin, read-out: FP EC50
[10] = Peptide + ST-Protein (SAINT-Protein lipid), read-out: Nano-BRET Abs IC50
[11] = Peptide only, read-out: Nano-BRET Abs IC50
[12] = absolute IC50, read-out: NanoBRET Abs IC50
[13] = Peptide + ST-Protein (SAINT-Protein lipid), read-out: TCF Reporter Assay Abs IC50
[14] = Peptide only, read-out: TCF Reporter Assay Abs IC50

IC50 [4, 9] | IC50 ([4]; read-out: beta-Catenin FP IC50) | CHI Log D [5] | IC50 [6, 10] | IC50 [6, 11] | IC50 [6, 12] | IC50 ([6]; read-out: NanoBRET Abs IC50) | IC50 ([6]; read-out: NanoBRET IC50) | IC50 [7, 13] | IC50 [7, 14] | IC50 ([7]; read-out: DLD1 4% Abs IC50, DLD1 4%) | Solubility [8] | Structure (SMILES) | expression of various nucleic acids such as Axin2 and Myc [1] | expression of beta-catenin-independent genes including beta-catenin-independent WNT target genes such as PLOD2 and LCOR [2] | expression in a report assay [3]
7 nM | 8 nM | 2.393 | 700 nM | 5000 nM | 2600 nM | 3600 nM | 2300 nM | 200 nM | 5000 nM | 1100 nM |  | CC(=O)N1CCC[C@]12CC=CCCCC1(CCCC=CCCCOC(=O)N3CC[C@@](C(=O)N[C@@H](Cc4ccsc4)C(=O)N[C@@H](Cc4csc5ccccc45)C(=O)N[C@@H](CCC(N)=O)C(N)=O)(C3)NC(=O)[C@H](CC(C)C)NC(=O)[C@H](Cc3ccccc3)NC(=O)[C@H](C)NC(=O)[C@H](C)NC(=O)[C@H](CN(CC(=O)O)CC(F)(F)F)NC(=O)[C@H](CC(=O)O)NC1=O)NC(=O)[C@H](CC(C)(C)C)NC(=O)[C@H](CC(=O)O)NC2=O (stereo partly drawn) [I-849, Ac-PL3-Asp-Npg-B5-Asp-TfeGA-Ala-Ala-Phe-Leu-PyrS2-3Thi-BztA-Gln-NH2] | can effectively reduce expression | do not significantly impact expression | can effectively reduce expression
12 nM | 12 nM | 2.344 | 1000 nM | 6000 nM | 2700 nM | 2700 nM | 2300 nM | 200 nM | 5000 nM |  | 32 µM (≈ 65.4 µg/mL) | CC(=O)N1CCC[C@]12CC=CCCCC1(CCCC=CCCCOC(=O)N3CC[C@@](C(=O)N[C@@H](Cc4ccccc4Cl)C(=O)N[C@@H](Cc4csc5ccccc45)C(=O)N[C@@H](CCC(N)=O)C(N)=O)(C3)NC(=O)[C@H]([C@@H](C)O)NC(=O)[C@H](Cc3ccccc3)NC(=O)[C@H](C)NC(=O)[C@H](C)NC(=O)[C@H](CN(CC(=O)O)CC(F)(F)F)NC(=O)[C@H](CC(=O)O)NC1=O)NC(=O)[C@H](CC(C)(C)C)NC(=O)[C@H](CC(=O)O)NC2=O (stereo partly drawn) [I-922, Ac-PL3-Asp-Npg-B5-Asp-TfeGA-Ala-Ala-Phe-Thr-PyrS2-2C1F-BztA-Gln-NH2] | can effectively reduce expression | do not significantly impact expression | can effectively reduce expression

From patent publication US20240116985A1, “STAPLED PEPTIDES AND METHODS THEREOF” (priority 2020, published 2024)
